Results reported in PMC9305971, “Development of [^18F]AmBF3 Tetrazine for Radiolabeling of Peptides: Preclinical Evaluation and PET Imaging of [^18F]AmBF3-PEG7-Tyr^3-Octreotide in an AR42J Pancreatic Carcinoma Model” (Bioconjugate Chemistry, 2022).

Tests used:
[1] = PET/CT and ex vivo biodistribution of [18F]6 in healthy mice; design: species or system male SCID and female C57BL/6JRj mice; conditions: i.v.; for bone uptake in tibia / gallbladder uptake: 270 min post injection
Procedure: [^18F]6 in 10% ethanol–0.01 M PBS was administered intravenously to male Fox Chase SCID mice (CB.17 SCID) (11.0 ± 0.5 MBq, ∼11 nmol, ∼150 μL, n = 4) and healthy female C57BL/6JRj mice (11.3 ± 0.3 MBq, ∼11 nmol, ∼150 μL, n = 4) under 2% isoflurane anesthesia. The PET/CT image was acquired with Inveon PET/CT for 60 min followed by a 15 min static scan 4 h after injection of the tracer. The images of the dynamic scan were reconstructed to time frames 60 × 10, 10 × 60, 4 × 300, and 3 × 600 s. After the second PET imaging (t = 270 ± 1.9 min post injection, n = 4), the organs were harvested and the radioactivity in each tissue sample was measured with a γ-counter and reported as a percentage of injected dose per gram of tissue (% ID/g). [^18F]15 was formulated in 4% ethanol in 0.01 M PBS and administered intravenously (0.2 nmol, 0.80 ± 0.30 MBq; tracer: 150 μL; tracer + blocking dose: 200 μL) to AR42J tumor-bearing Rj:NMRI-Foxn1^nu/nu mice (n = 4) under 2% isoflurane anesthesia. PET/CT images were acquired with Molecubes PET (β-CUBE) coupled with a CT (X-CUBE) (MOLECUBES NV, Ghent, Belgium) with two mice being imaged at the same time under 2% isoflurane anesthesia. Images were reconstructed to time frames 30 × 10, 15 × 60, 4 × 300, and 5 × 600 s. Quantitative image analysis was done with Carimas software (v 2.10, Turku PET Centre, Turku, Finland). Spherical ROIs were hand-drawn based on anatomical CT data and PET signal for the desired organs. The results are presented as standardized uptake values (SUVs).

[2] = Hydrolytic stability in 0.01 M PBS / formulated solution (radio-HPLC); type: physicochemical; conditions: t = 3 h, 0.01 M PBS, pH 7.4
Procedure: (§1) Lipophilicity was determined with the shake-flask method as a distribution coefficient between 0.01 M PBS and octanol. Purified radiotracer [^18F]6 (10 μL, ∼200 kBq, 1.5 nmol), [^18F]14 (20 μL, ∼260 kBq, 125 pmol), or [^18F]15 (20 μL, 144 kBq, 67 pmol) in a polypropylene tube containing 1500–2000 μL of each in a 1:1 mixture (1-octanol, 0.02 M PBS, pH 7.4) was shaken mechanically (500 rpm, 10 min) and centrifuged (1000g, 5 min), and samples from each layer (400 μL, n = 4) were measured with a γ-counter. The log D7.4 was calculated as a distribution between the two layers at pH 7.4. [^18F]6 (10 MBq, 40 nmol) diluted with 0.01 M PBS at pH 7.4 (≤1% ethanol, 5300 μL) was incubated for 180 min. At selected time points (5, 30, 60, 90, 120, 150, and 180 min), a sample (100 μL) was injected to radio-HPLC. [^18F]14 and [^18F]15 (29 MBq, 10 nmol) diluted in 2000 μL of 0.01 M PBS (≤1% ethanol) were left to incubate. A sample of [^18F]14 (100 μL) after 9 hours and [^18F]15 at selected time points between 30 and 335 min were injected into HPLC (method A). [^18F]15 (0.6 MBq, 0.134 nmol, 200 μL) formulated in ≤5% EtOH-1 × PBS was added and incubated in 2000 μL of PBS-50% human plasma at 37 °C. A 100 μL sample (at 60, 120, 180, and 240 min, n = 2) was diluted with 200 μL of cold acetonitrile and centrifuged (10,000g, 5 min). After centrifugation, a 100 μL sample of the supernatant was injected for radio-HPLC analysis.

[3] = Lipophilicity, shake-flask log D7.4 (1-octanol/PBS); type: physicochemical; conditions: 1-octanol/PBS pH 7.4, n = 4
Procedure: as §1, with “analysis. […]” for “analysis.”
Lipophilicity. The lipophilicities were determined with the shake-flask method as a distribution profile between 0.01 M PBS and octanol at pH 7.4. The distribution of the radiolabeled compound between the octanol and the PBS layers was calculated according

bone uptake in tibia ([1]; C57BL/6JRj female mice): 0.4 ± 0.1 % ID/g
gallbladder uptake ([1]; C57BL/6JRj female mice): 6.4 ± 2.5 % ID/g
bone uptake in tibia ([1]; SCID male mice): 0.3 ± 0.1 % ID/g
gallbladder uptake ([1]; SCID male mice): 3.5 ± 2.4 % ID/g
major elimination pathway ([1]; PET/CT and ex vivo biodistribution 270 min post injection): renal clearance
hydrolytic stability, intact [2]: ≥ 99%
logD [3]: -0.13 ± 0.06
Compound: C[N+](C)(CCNC(=O)Cc1ccc(-c2nncnn2)cc1)C[B-](F)(F)[18F] [[^18F]6]
